B1: Decorin: small leucine-rich proteoglycan, TGF-β1/2 antagonist; recombinant form tested in rat SCI models (protein, UniProt P07585 31-359, looked up)
Decorin: DEASGIGPEVPDDRDFEPSLGPVCPFRCQCHLRVVQCSDLGLDKVPKDLPPDTTLLDLQNNKITEIKDGDFKNLKNLHALILVNNKISKVSPGAFTPLVKLERLYLSKNQLKELPEKMPKTLQELRAHENEITKVRKVTFNGLNQMIVIELGTNPLKSSGIENGAFQGMKKLSYIRIADTNITSIPQGLPPSLTELHLDGNKISRVDAASLKGLNNLAKLGLSFNSISAVDNGSLANTPHLRELHLDNNKLTRVPGGLAEHKYIQVVYLHNNNISVVGSSDFCPPGHNTKKASYSGVSLFSNPVQYWEIQPSTFRCVYVRSAIQLGNYK

Experiments:
[1] = tested on: subjects with subacute cervical spinal cord injury (C4-C7, AIS A/B); test: Phase 1/2a cervical SCI dose escalation study: safety, adverse events, MRI; format: in vivo, human
Procedure: Study Design. The trial design was an open-label, staggered dose escalation, cross-sequential, multicenter study. Three sequential, escalating doses of AST-OPC1 were administered at a single tie point between 21 and 42 days post-injury to subjects with subacute cervical spinal cord injuries (SCI). Subjects received AST-OPC1 via direct intra-spinal injection using a Syringe Positioning Device (SPD). To prevent rejection of engraftment, low dose tacrolimus was initiated 6 to 12 hours after and intra-spinal injection, and continued for 46 days, tapered from Day 46 to Day 60, and was discontinued at Day 60. Subjects were followed for 1 year following administration of AST-OPC1 under this protocol. Male or female subjects from 18 to 69 years of age at time of consent with sensorimotor complete, traumatic SCI (American Spinal Injury Association Impairment Scale A) or sensorimotor incomplete, traumatic SCI (American Spinal Injury Association Impairment Scale B). […] There was a single spinal cord lesion on a post-stabilization magnetic resonance imaging (MRI) scan, with sufficient visualization of the spinal cord injury epicenter and lesion margins to enable post-injection safety monitoring. Subjects were able to participate in an elective surgical procedure to inject AST-OPC1 21 to 42 days following SCI. Subjects received a single dose of either 2×10^6, 1×10^7, or 2×10^7 AST-OPC1 viable cells by injection, administered 21 to 42 days following SCI. The product was delivered intraoperatively into the spinal cord using the Syringe Positioning Device. The AST-OPC1 batch numbers used in this study were M08D1A, M22D1A and M25D1A. Single administration of AST-OPC1 was provided with 1 year of follow-up. Schematics of the planned study timeline, and subject screening and treatment, are provided in FIG. 6 and FIG. 7, respectively. A schematic diagram of the final open-label, staggered dose-escalation, multicenter Phase 1/2a clinical trial is shown in FIG. 8. An overview of study visits for the one-year protocol is presented in the study schema in FIG. 9.
A neurological examination was completed using the standardized International Standards for Neurological Classification of Spinal Cord Injury (ISNCSCI) examination for motor and sensory testing and for designation of the American Spinal Injury Association impairment scale. The ISNCSCI is used for efficacy with respect to improved motor function in the extremities, improved sensory function, and/or a descending neurological level. Safety assessments included physical examination, vital signs, ISNCSCI neurological examination, pain questionnaire (International Spinal Cord Injury Pain Basic Data Set, ISCIPBDS), electrocardiogram (ECG), Magnetic Resonance Imaging (MRI), laboratory tests, concomitant medications, and adverse events (AEs). Results for the ISNCSCI were listed for each subject by scheduled visit and analyzed by change in motor level and motor scores as well as other exploratory assessments of arm/hand function, self-care ability and overall volitional performance. Adverse events were tabulated by system organ class and by preferred term within system organ class according to the Medical Dictionary for Regulatory Activities (MedDRA®) Version 18.0. Statistical analysis of the safety data was performed using descriptive statistical methods including AEs incidence, severity and relatedness to AST-OPC1, to the injection procedure for product administration, and concomitant immunosuppression with tacrolimus. The number of laboratory assessments (hematology, clinical chemistry) that were below, within, or above the normal laboratory reference range were summarized for each analyte at scheduled study visits. Vital signs were summarized by calculating the mean, standard deviation, median, and range of values at each of the protocol-specified time points.
Study Endpoints. […]

[2] = tested on: participants with neurologically complete thoracic spinal cord injury (T3-T11); test: Phase 1 thoracic SCI trial (NCT01217008): safety, adverse events; format: in vivo, human; conditions: N=5
Procedure: Study design. The trial design was an open-label, multicenter study. A single dose of 2×10^6 LCTOPC1 was injected within 7 to 14 days following SCI. Subjects who received LCTOPC1 also received tacrolimus to prevent rejection.
This study was a Phase 1, multi-center, non-randomized, a single group assignment interventional clinical trial. The Participants were enrolled from one of seven centers in the United States. The study was registered (NCT01217008) and the primary endpoint was safety, as measured by the frequency and severity of adverse events related to LCTOPC1, the injection procedure used to administer LCTOPC1, and/or the concomitant immunosuppression administered. The secondary endpoint was neurological function as measured by sensory scores and lower extremity motor scores on ISNCSCI examinations.
Safety Assessments. The primary endpoint of the Phase 1 clinical trial was safety, as measured by the frequency and severity of adverse events (AEs) within 1 year of LCTOPC1 injection that were related to LCTOPC1, the injection procedure used to administer LCTOPC1, and/or the concomitant immunosuppression administered. […]
Definition of an Adverse Event. […] The severity of AEs and the characterization of Serious Adverse Events (SAEs) were evaluated using standard FDA criteria.
The relationship of AEs to the investigational drug was determined by each site investigator and was categorized as “Possibly Related” based on the following criteria: 1) the AE was reasonably related in time with LCTOPC1 exposure, the injection procedure used to administer LCTOPC1, and/or the concomitant immunosuppression administered AND 2) the AE could be explained either by exposure to the investigational product or equally well by factors or causes other than exposure to the investigational product. Adverse events were monitored by the External Medical Monitor, Sponsor Medical Monitor, and DSMB.

[3] = tested on: dorsal funicular lesion (DFL) SCI model; conditions: cited from earlier work

Row | Molecule | Hypomagnesemia: Days from Injection ([1]; both, human, in vivo) | Nausea: Days from Injection ([1]; both, human, in vivo) | Decreased Appetite: Severity ([1]; both, human, in vivo, 365 days) | Hypomagnesemia: Severity ([1]; both, human, in vivo, 365 days) | Nausea: Severity ([1]; both, human, in vivo, 365 days) | Bacterial infection: Days from Injection ([1]; causality Tacrolimus) | Bacterial infection: Outcome ([1]; causality Tacrolimus) | Bacterial infection: Severity ([1]; causality Tacrolimus) | Decreased Appetite: Outcome ([1]; in vivo) | Hypomagnesemia: Outcome ([1]; in vivo) | Nausea: Outcome ([1]; in vivo) | Grade 1 AEs possibly related specifically to tacrolimus (number) [2] | Grade 2 AEs possibly related specifically to tacrolimus (number) [2] | AEs possibly related specifically to the immunosuppression (number of the 25) ([2]; tacrolimus to Day 60, trough 3 to 7 ng/mL) | Acute scarring and wound cavitation ([3]; DFL SCI model, adult rats) | Axonal regrowth ([3]; acute and chronic experiments, vs PBS-treated DFL) | Inflammation, glial scar formation and CSPG expression ([3]; after acute spinal cord injury)
1 | C=CC[C@@H]1/C=C(\C)C[C@H](C)C[C@H](OC)[C@H]2O[C@@](O)(C(=O)C(=O)N3CCCC[C@H]3C(=O)O[C@H](/C(C)=C/[C@@H]3CC[C@@H](O)[C@H](OC)C3)[C@H](C)[C@@H](O)CC1=O)[C@H](C)C[C@@H]2OC [Tacrolimus, tacrolimus] | 5 to 43 days | 7 days | Grade 2 | Grade 1-2 | Grade 2 | 30 days | Resolved | Grade 3 | Resolved | Resolved | Resolved | Seven | nine | Sixteen |  |  | 
2 | B1 |  |  |  |  |  |  |  |  |  |  |  |  |  |  | suppressed acute scarring (fibrogenesis) and wound cavitation | promoted axonal regrowth | inhibit inflammation, glial scar formation and CSPG expression

Reference: patent US20240082311A1, “COMPOSITIONS AND METHODS FOR TREATING SPINAL CORD INJURIES” (ASTERIAS BIOTHERAPEUTICS, INC., priority 2021, published 2024)
